From ChEMBL document CHEMBL5046301, “pH-Responsive Antimicrobial Peptide with Selective Killing Activity for Bacterial Abscess Therapy” (J Med Chem, 2022)
Calls of active or inactive are those of the source. The calls are words filed in the database; no cut-off is given here.

Columns and labels:
Salmonella typhimurium [1] = experiment: Antibacterial activity against Salmonella typhimurium ATCC 14028 assessed as inhibition of bacterial growth at pH 7.4 incubated for 24 hrs by NCCLS protocol based method; assay type: functional, Salmonella enterica subsp. enterica serovar Typhimurium; conditions: Salmonella enterica
Escherichia coli [2] = experiment: Antibacterial activity against Escherichia coli ATCC 25922 assessed as inhibition of bacterial growth at pH 7.4 incubated for 24 hrs by NCCLS protocol based method; assay type: functional
Staphylococcus aureus [3] = experiment: Antibacterial activity against methicillin-resistant Staphylococcus aureus ATCC 43300 assessed as inhibition of bacterial growth at pH 7.4 incubated for 24 hrs by NCCLS protocol based method; assay type: functional
Staphylococcus aureus [4] = experiment: Antibacterial activity against Staphylococcus aureus ATCC 29213 assessed as inhibition of bacterial growth at pH 6.5 incubated for 24 hrs by NCCLS protocol based method; assay type: functional
Staphylococcus aureus [5] = experiment: Antibacterial activity against Staphylococcus aureus ATCC 29213 assessed as inhibition of bacterial growth at pH 7.4 incubated for 24 hrs by NCCLS protocol based method; assay type: functional
[6] = system: Staphylococcus epidermidis; experiment: Antibacterial activity against Staphylococcus epidermidis ATCC 12228 assessed as inhibition of bacterial growth at pH 6.5 incubated for 24 hrs by NCCLS protocol based method; assay type: functional
Staphylococcus aureus [7] = experiment: Antibacterial activity against Staphylococcus aureus ATCC 25923 assessed as inhibition of bacterial growth at pH 6.5 incubated for 24 hrs by NCCLS protocol based method; assay type: functional
[8] = Hemolytic activity in human RBC assessed as hemoglobin release at pH 7.4 incubated for 1 hr; assay type: toxicity, cell-based; conditions: erythrocyte, pH 7.4, 1 h
Escherichia coli [9] = experiment: Antibacterial activity against Escherichia coli ATCC 25922 assessed as inhibition of bacterial growth at pH 6.5 incubated for 24 hrs by NCCLS protocol based method; assay type: functional
Pseudomonas aeruginosa [10] = experiment: Antibacterial activity against Pseudomonas aeruginosa ATCC 27853 assessed as inhibition of bacterial growth at pH 6.5 incubated for 24 hrs by NCCLS protocol based method; assay type: functional
Salmonella typhimurium [11] = experiment: Antibacterial activity against Salmonella enterica subsp. enterica serovar Typhimurium C77-31 assessed as inhibition of bacterial growth at pH 6.5 incubated for 24 hrs by NCCLS protocol based method; assay type: functional
[12] = system: Staphylococcus epidermidis; experiment: Antibacterial activity against Staphylococcus epidermidis ATCC 12228 assessed as inhibition of bacterial growth at pH 7.4 incubated for 24 hrs by NCCLS protocol based method; assay type: functional
[13] = Cytotoxicity against mouse RAW264.7 cells assessed as inhibition of cell growth at pH 7.4 measured after 24 hrs by MTT assay; assay type: toxicity, cell-based
[14] = Hemolytic activity against human RBC assessed as hemoglobin release at pH 6.5 incubated for 1 hrs; assay type: toxicity, cell-based; conditions: erythrocyte, pH 6.5, 1 h
[15] = Cytotoxicity against mouse RAW264.7 cells assessed as inhibition of cell growth at pH 6.5 measured after 24 hrs by MTT assay; assay type: toxicity, cell-based
Pseudomonas aeruginosa [16] = experiment: Antibacterial activity against Pseudomonas aeruginosa ATCC 27853 assessed as inhibition of bacterial growth at pH 7.4 incubated for 24 hrs by NCCLS protocol based method; assay type: functional
Staphylococcus aureus [17] = experiment: Antibacterial activity against Staphylococcus aureus ATCC 25923 assessed as inhibition of bacterial growth at pH 7.4 incubated for 24 hrs by NCCLS protocol based method; assay type: functional
Salmonella typhimurium [18] = experiment: Antibacterial activity against Salmonella enterica subsp. enterica serovar Typhimurium C77-31 assessed as inhibition of bacterial growth at pH 7.4 incubated for 24 hrs by NCCLS protocol based method; assay type: functional
Salmonella typhimurium [19] = experiment: Antibacterial activity against Salmonella typhimurium ATCC 14028 assessed as inhibition of bacterial growth at pH 6.5 incubated for 24 hrs by NCCLS protocol based method; assay type: functional, Salmonella enterica subsp. enterica serovar Typhimurium; conditions: Salmonella enterica
[20] = Ratio of MHC for hemolytic activity against human RBC assessed as hemoglobin release at pH 6.5 to MHC for hemolytic activity against human RBC assessed as hemoglobin release at pH 7.4; assay type: toxicity, cell-based, Erythrocyte; conditions: human red blood cells (RBC)
Staphylococcus aureus [21] = experiment: Antibacterial activity against methicillin-resistant Staphylococcus aureus ATCC 43300 assessed as inhibition of bacterial growth at pH 6.5 incubated for 24 hrs by NCCLS protocol based method; assay type: functional
Mus musculus [22] = experiment: Antiinflammatory activity in ICR cutaneous abscess mouse model assessed as reduction in TNF-alpha expression in serum at 5 mg/kg,ip administered twice a day measured after 72 hrs by ELISA (reference value: 1.01 +/ 0.46 10^3 pg/ml); assay type: functional
Pseudomonas aeruginosa [23] = experiment: Antimicrobial activity against Pseudomonas aeruginosa ATCC 27853 infected in ICR cutaneous abscess mouse model assessed as reduction in necrotic tissue area in infection site at 5 mg/kg,ip administered twice a day measured after 3 days by hematoxylin and eosin staining based analysis; assay type: functional, organism-based; conditions: time 3.0 day
Pseudomonas aeruginosa [24] = experiment: Antimicrobial activity against Pseudomonas aeruginosa ATCC 27853 infected in ICR cutaneous abscess mouse model assessed as complete epidermis structure at 5 mg/kg,ip administered twice a day measured after 3 days by hematoxylin and eosin staining based analysis; assay type: functional, organism-based; conditions: time 3.0 day
Mus musculus [25] = experiment: Antiinflammatory activity in ICR cutaneous abscess mouse model assessed as reduction in IL-1beta expression in serum at 5 mg/kg,ip administered twice a day measured after 72 hrs by ELISA (reference value: 9.9 +/ 0.47 10^1pg/ml); assay type: functional
Mus musculus [26] = experiment: Antiinflammatory activity in ICR cutaneous abscess mouse model assessed as reduction in IL-1alpha expression in serum at 5 mg/kg,ip administered twice a day measured after 72 hrs by ELISA (reference value: 9.9 +/ 0.42 10^1pg/ml); assay type: functional
Mus musculus [27] = experiment: Antiinflammatory activity in ICR cutaneous abscess mouse model assessed as reduction in IL-2 expression in serum at 5 mg/kg,ip administered twice a day measured after 72 hrs by ELISA (reference value: 1.53 +/ 0.06 10^3pg/ml); assay type: functional

Row | Substance | MIC (Salmonella typhimurium [1]) [µM] | MIC (Escherichia coli [2]) [µM] | MIC (Staphylococcus aureus [3]) [µM] | MIC (Staphylococcus aureus [4]) [µM] | MIC (Staphylococcus aureus [5]) [µM] | MIC [6] [µM] | MIC (Staphylococcus aureus [7]) [µM] | MHC10 [8] [µM] | MIC (Escherichia coli [9]) [µM] | MIC (Pseudomonas aeruginosa [10]) [µM] | MIC (Salmonella typhimurium [11]) [µM] | MIC [12] [µM] | IC50 at 24 h [13] [µM] | MHC10 [14] [µM] | IC50 at 24 h [15] [µM] | MIC (Pseudomonas aeruginosa [16]) [µM] | MIC (Staphylococcus aureus [17]) [µM] | MIC (Salmonella typhimurium [18]) [µM] | MIC (Salmonella typhimurium [19]) [µM] | MIC (Staphylococcus aureus [21]) [µM] | other results
1 | H-FLFKLIPKVIKGLVHAIHH-NH2 | 8 | 4 | 2 | 2 | 2 | 2 | 2 | 64 | 4 | 4 | 4 | 2 | 4.37 | 32 | 2.96 | 8 | 2 | 8 | 4 | 2 | selectivity ratio [20]: 0.5
2 | H-FLFHLIPHVIHGLVHAIHH-NH2 | 64 | 4 | 4 | 4 | 4 | 2 | 2 | 16 | 2 | 2 | 8 | 4 | 12.3 | 8 | 4.79 | 64 | 4 | 64 | 16 | 2 | selectivity ratio [20]: 0.5
3 | H-FLDHLIPHVIHGLVHAIHH-NH2 | > 64 | > 64 | > 64 | > 64 | > 64 | > 64 | > 64 | > 128 | 4 | 8 | 16 | > 64 | 67.9 | > 128 | 67.9 | > 64 | > 64 | > 64 | 16 | > 64 | –
4 | H-FLHHLIPHVIHGLVHAIHH-NH2 | 16 | 8 | 4 | 16 | > 64 | 8 | 8 | 64 | 2 | 2 | 2 | 4 | 70.1 | 64 | 16.1 | > 64 | 4 | 16 | 4 | 8 | selectivity ratio [20]: 1
5 | H-ELEHLIPHVIHGLVHAIHH-NH2 | > 64 | > 64 | > 64 | > 64 | > 64 | > 64 | > 64 | > 128 | 32 | > 64 | > 64 | > 64 | > 128 | > 128 | > 128 | > 64 | > 64 | > 64 | > 64 | > 64 | –
6 | H-HLDHLIPHVIHGLVHAIHH-NH2 | > 64 | > 64 | > 64 | > 64 | > 64 | > 64 | > 64 | > 128 | 8 | 32 | 64 | > 64 | > 128 | > 128 | > 128 | > 64 | > 64 | > 64 | 64 | > 64 | –
7 | H-FLFHLIPHVIHGLVKAIRK-NH2 | 8 | 2 | 2 | 1 | 2 | 1 | 1 | 16 | 1 | 1 | 2 | 1 | 4.41 | 4 | 3.15 | 4 | 2 | 4 | 4 | 1 | selectivity ratio [20]: 0.25
8 | COLISTIN | – | – | – | – | – | – | – | – | – | – | – | – | – | – | – | – | – | – | – | – | Activity (Mus musculus [22]): 8.06 10^2pg/ml; Activity (Pseudomonas aeruginosa [23]): Active; Activity (Pseudomonas aeruginosa [24]): Active; Activity (Mus musculus [25]): 7.23 10^1pg/ml; Activity (Mus musculus [26]): 7.95 10^1pg/ml; Activity (Mus musculus [27]): 1.11 10^3pg/ml
9 | H-HLEHLIPHVIHGLVHAIHH-NH2 | > 64 | > 64 | > 64 | > 64 | > 64 | > 64 | > 64 | > 128 | 4 | 32 | > 64 | > 64 | > 128 | > 128 | > 128 | > 64 | > 64 | > 64 | 64 | > 64 | –
10 | H-HLHHLIPHVIHGLVHAIHH-NH2 | 64 | 16 | 16 | > 64 | > 64 | > 64 | > 64 | > 128 | 2 | 8 | 2 | 32 | 66 | > 128 | 58.3 | > 64 | 32 | 64 | 8 | > 64 | –
11 | H-DLDHLIPHVIHGLVHAIHH-NH2 | > 64 | > 64 | > 64 | > 64 | > 64 | > 64 | > 64 | > 128 | 32 | > 64 | > 64 | > 64 | > 128 | > 128 | > 128 | > 64 | > 64 | > 64 | > 64 | > 64 | –
